# Data from ChEMBL document CHEMBL5120920, “A Mitochondria-Targeted Phenylbutyric Acid Prodrug Confers Drastically Improved Anticancer Activities” (J Med Chem, 2022).
# Calls of active or inactive are those of the source. The rule behind the calls is not given here.
# How the values were obtained:
# [1] = Toxicity in BALB/c mouse assessed as change in body weight at 70 mg/kg, iv measured once every two days for 7 days; format: organism-based; settings: in vivo, 168 h, time 7 day
# [2] = test system: A-375; experiment: Antitumor activity against human A-375 cells implanted in BALB/c mouse assessed as tumor growth inhibition at 70 mg/kg, ip measured once every two days for 14 days; format: functional, organism-based; settings: time 14.0 day
# [3] = test system: A-375; experiment: Antitumor activity against human A-375 cells implanted in BALB/c mouse assessed as reduction in tumor weight at 70 mg/kg, ip measured once every two days for 14 days; format: functional, organism-based; settings: time 14.0 day
# [4] = test system: A-375; experiment: Antitumor activity against human A-375 cells implanted in BALB/c mouse assessed as shrinkage of tumor tissue at 70 mg/kg, ip measured once every two days for 14 days; format: functional, organism-based; settings: time 14.0 day
smiles,measurement,setting,value
CN(C)/N=N/c1[nH]cnc1C(N)=O [DACARBAZINE],Activity,[1],Toxic
same,Activity,[2],Active
same,Activity,[3],Active
same,Activity,[4],Active
